102 molecules from the CATMoS acute toxicity set (Mansouri et al. 2021) can be followed below.

A short description of the series: GHS categories as the set defines them, by LD50: 1 up to 5, 2 up to 50, 3 up to 300, 4 up to 2000, 5 above 2000 mg/kg. To be noted: rat; in vivo; po.

For the molecule `CCN(C(=O)CCCSc1nnnn1C)c1ccccn1`, the GHS category is reported as 4.

Molecule `CCO[Si](C)(CCCCl)OCC` returned a GHS category of 5.

The molecule `CCOP(Oc1c(C)cc(C(C)(C)C)cc1C(C)(C)C)Oc1c(C)cc(C(C)(C)C)cc1C(C)(C)C` showed a GHS category of 5.

Molecule `O=C1CCCCCCCCCCOCCCCO1` displayed a GHS category of 5.

For `Nc1ncnc2c1ncn2[C@@H]1O[C@H](COP(=O)(O)OP(=O)(O)OP(=O)(O)O)[C@@H](O)[C@H]1O`, the GHS category was determined as 5.

The molecule `CC(C)CCCCCCCCCCOC(=O)CCCCC(=O)OCCCCCCCCCCC(C)C` came in with a GHS category of 5.

Regarding `CCCCCCCCCCCCO[PH](=O)OCCCCCCCCCCCC`, the GHS category was 5.

`O=C(O)c1ccc(NC(=O)[C@H](Cc2ccc(O)cc2)NC(=O)c2ccccc2)cc1` gave a GHS category of 5.

As for `CC1(C)O[C@@H]2C[C@H]3[C@@H]4C[C@H](F)C5=CC(=O)C=C[C@]5(C)[C@H]4[C@@H](O)C[C@]3(C)[C@]2(C(=O)CO)O1`, the GHS category amounted to 1.

In turn, `C=C[Si](C)(N(CC)C(C)=O)N(CC)C(C)=O` returned a GHS category of 4.

As to `CC1CCCCC1`, the GHS category is given as 5.

The molecule `CC1(C)COC(Cn2cncn2)(c2cc3cc(Cl)cc(Cl)c3o2)OC1` registered a GHS category of 4.

Molecule `CCCO[Si](OCCC)(OCCC)OCCC` yielded a GHS category of 5.

Molecule `CCC1(c2ccccc2O)NC(=O)NC1=O` (configuration not stated) yielded a GHS category of 5.

Regarding `Nc1ccc(NCCO)c([N+](=O)[O-])c1`, the GHS category was determined as 4.

In the case of `Clc1ccc(CN2CCN=C2c2ccccc2)cc1`, the GHS category is on record as 4.

In turn, `CO[C@@]1(NC(=O)CSC[C@@H](N)C(=O)O)C(=O)N2C(C(=O)O)=C(CSc3nnnn3C)CS[C@@H]21` yielded a GHS category of 5.

`CCCCc1c(Cc2ccc(-c3ccccc3-c3nn[nH]n3)cc2)c(=O)nc2nc[nH]n12`: the GHS category is on record as 4.

In the case of `O=CN(O)CCCP(=O)(O)O`, the GHS category stood at 5.

On to `CCOC(=O)C1=C(C)C=CCC1(C)C`, for which the GHS category amounted to 5.

On to `CCC(=O)OC1C=CC2C3CCC(C3)C12` (configuration not stated), for which the GHS category stood at 5.

As for `N=C1C=CC2=CC(S(=O)(=O)O)=CC(=O)C2=C1NNc1ccc(-c2ccc(N=Nc3cc(S(=O)(=O)O)c4ccccc4c3N)cc2)cc1`, the GHS category is 5.

Molecule `CCCCOC(=O)c1ccccc1OC(N)=O` yielded a GHS category of 5.

The molecule `CCCNC(=O)c1sc(-c2ccccc2OC)nc1C` registered a GHS category of 5.

The molecule `COc1cc(C#N)cc(OC)c1O` displayed a GHS category of 5.

As to `CCOCc1nc(=O)c2nccnc2[nH]1`, the GHS category turned out to be 5.

For `CC(C)S`, the GHS category was determined as 5.

Regarding `CCOc1ccc(NC(=O)OC(C)C)cc1OCC`, the GHS category came to 5.

In turn, `CCOC(=O)c1ccc(NC(=O)C=C(C)C=CC=C(C)C=CC2=C(C)CCCC2(C)C)cc1` registered a GHS category of 5.

As for `CC(=O)c1ccc2cc(CC(=O)O)ccc2c1`, the GHS category is reported as 5.

`CN1CC(c2ccn(-c3ccccc3)n2)CC2c3cccc4[nH]cc(c34)CC21` (configuration not stated): the GHS category turned out to be 4.

For `O=C(O)C(c1ccccc1Cl)N1CCc2sccc2C1` (configuration not stated), the GHS category is listed as 5.

`O=c1[nH]c(=O)n([C@H]2C[C@H](O)[C@@H](CO)O2)cc1C(F)(F)F` yielded a GHS category of 5.

Consider `CC(C)(C)N(Sc1nc2ccccc2s1)Sc1nc2ccccc2s1`, for which the GHS category is on record as 5.

`COc1cc(C(=O)OCc2cccc(COC(=O)c3cc(OC)c(OC)c(OC)c3)n2)cc(OC)c1OC` yielded a GHS category of 5.

Molecule `CC(=O)OC1CN(C)C(=O)N1c1cc(C(C)(C)C)on1` (configuration not stated) came in with a GHS category of 4.

Molecule `CCC[C@H]1CCO[C@@H](C)S1` displayed a GHS category of 5.

For the molecule `COC(=O)COc1nc(F)c(Cl)c(N)c1Cl`, the GHS category is listed as 5.

In turn, `COc1cc(OC)nc(NC(=O)Oc2ccccc2)n1` displayed a GHS category of 5.

`NS(=O)(=O)c1cc2c(cc1Cl)NC(C1CC3C=CC1C3)NS2(=O)=O` (configuration not stated) returned a GHS category of 5.

As for `C=CCCCC(C)C`, the GHS category is on record as 5.

`CC(c1ccccc1)C1Nc2cc(Cl)c(S(N)(=O)=O)cc2S(=O)(=O)N1` (configuration not stated) registered a GHS category of 5.

`CC(C)=CCC(C#N)(CCN(C)C)Cc1cccc2ccccc12` (configuration not stated) showed a GHS category of 4.

Regarding `CCCCC(C)OP(=S)(OC)OC` (configuration not stated), the GHS category is recorded as 4.

In turn, `NC(=O)OCC(COC(N)=O)c1ccccc1` came in with a GHS category of 5.

For `Nc1nc2c(s1)CC(N)CC2` (configuration not stated), the GHS category is given as 4.

Consider `O=C(O)COc1ccc(Cl)cc1CO`, for which the GHS category was 5.

On to `CCCCCCNC(=O)c1cnc2cccc(C)n2c1=O`, for which the GHS category is on record as 3.

On to `OC1(c2ccc(Cl)c(Cl)c2)c2ccccc2C2=NCCCN21` (configuration not stated), for which the GHS category turned out to be 4.

For the molecule `CC1CC(OC(=O)c2ccccc2O)CC(C)(C)C1` (configuration not stated), the GHS category came out at 5.

Molecule `CC1(C)CC2(CC(C)(C)c3ccc(O)cc32)c2cc(O)ccc21` yielded a GHS category of 5.

Take `Cc1cc(C(C)(CC(=O)OCCOC(=O)CC(C)(c2ccc(O)c(C(C)(C)C)c2)c2ccc(O)c(C(C)(C)C)c2)c2ccc(O)c(C(C)(C)C)c2)cc(C(C)(C)C)c1O` (configuration not stated): the GHS category is 5.

The molecule `C[C@@H]1C[C@@H](O)CC(C)(C)C1=O` gave a GHS category of 5.

The molecule `CC(CO)(CO)C(=O)O` had a GHS category of 5.

In the case of `NS(=O)(=O)c1cc2c(cc1Cl)NC(Cc1ccccc1)NS2(=O)=O` (configuration not stated), the GHS category came to 5.

For the molecule `COC[C@@H]1CO[C@@](Cn2ccnc2)(c2cc3cc(Cl)cc(Cl)c3o2)O1`, the GHS category is reported as 4.

As for `NC(=O)NC(c1ccccc1)c1ccccc1`, the GHS category worked out at 5.

`CCCc1nc2ccnn2c(N2CCOCC2)c1Cc1ccc(-c2ccccc2-c2nn[nH]n2)cc1` showed a GHS category of 4.

Take `CC(C)OC(=O)N[C@H](C(=O)N[C@H](C)c1nc2ccc(F)cc2s1)C(C)C`: the GHS category turned out to be 5.

As to `COC(=O)c1ccccc1CS(=O)(=O)NC(=O)Nc1nc(OC)cc(OC)n1`, the GHS category is given as 5.

With `O=C1c2c(Cl)c(Cl)c(Cl)c(Cl)c2C2=Nc3cccc4cccc(c34)N12`, the GHS category was found to be 5.

The molecule `CCCCCCCCCCCCCCCCCCCCCC(=O)O` had a GHS category of 5.

Regarding `CCSC`, the GHS category is 5.

In the case of `CC(C)(c1ccc(OP(=O)(Oc2ccccc2)Oc2ccccc2)cc1)c1ccc(OP(=O)(Oc2ccccc2)Oc2ccccc2)cc1`, the GHS category stood at 5.

With `CC1OC(OC2C(OC(=O)C=Cc3ccc(O)c(O)c3)C(CO)OC3OCC(c4ccc(O)c(O)c4)OC32)C(O)C(O)C1O` (configuration not stated), the GHS category is 5.

With `C=CCCCCCCCC(=O)N(C)C`, the GHS category was 4.

`CCC(=O)OCCCc1ccccc1` yielded a GHS category of 5.

`CCC1CCC(=O)O1` (configuration not stated): the GHS category turned out to be 5.

On to `C[C@]12CCC(=O)C=C1C=C[C@@H]1[C@@H]2CC[C@@]2(C)[C@H]1CC[C@@]21CCC(=O)O1`, for which the GHS category was 5.

Molecule `C=C(C)C(=O)OCCNC(C)(C)C` gave a GHS category of 4.

In the case of `NCCCN(CCO)CCO`, the GHS category is 5.

As to `CC(C)=CCN(CC=C(C)C)CCC(C#N)(CC=C(C)C)c1cccc2ccccc12` (configuration not stated), the GHS category turned out to be 4.

In the case of `C=C(C)C(=O)OCCCCCCCCCCCC`, the GHS category is recorded as 5.

On to `CCC/C=C/COC(C)=O`, for which the GHS category was found to be 5.

Regarding `O=C(Nc1ccc(NC(=O)c2cc3ccccc3c(N=Nc3cc(Cl)ccc3Cl)c2O)cc1)c1cc2ccccc2c(N=Nc2cc(Cl)ccc2Cl)c1O`, the GHS category stood at 5.

For the molecule `CCC(=O)C(C)CO` (configuration not stated), the GHS category was 5.

In turn, `COc1ccccc1NC(=O)c1cc2ccccc2c(N=Nc2ccc(C(N)=O)cc2)c1O` returned a GHS category of 5.

`COC(=O)CCC(=O)OC` gave a GHS category of 5.

The molecule `CCOc1cc(C)c2[nH]c(=O)sc2c1` returned a GHS category of 5.

With `C#C[C@]1(O)CC[C@H]2[C@@H]3CCc4cc(OC)ccc4[C@H]3CC[C@@]21C`, the GHS category is 5.

The molecule `CCn1cc(C(=O)O)c(=O)c2cc(F)c(-n3cccc3)cc21` yielded a GHS category of 5.

In the case of `O=C(NC(CCc1ccc2c(c1)OCO2)CCc1ccc2c(c1)OCO2)c1cc2ccccc2o1`, the GHS category was 5.

In turn, `CCOC(=O)CC(CC(C)=O)C(=O)OCC` (configuration not stated) came in with a GHS category of 5.

`COc1cc([N+](=O)[O-])c(OC)cc1Cl`: the GHS category came to 5.

Take `O=C1OC(=O)c2c(Cl)c(Cl)c(Cl)c(Cl)c21`: the GHS category was 5.

`COCC1=C(C(=O)OC(C)OC(=O)OC(C)C)N2C(=O)[C@@H](NC(=O)/C(=N\OC)c3csc(N)n3)[C@H]2SC1` (some centres not stated) registered a GHS category of 5.

`CCCc1c(Cc2ccc(-c3ncccc3-c3nn[nH]n3)cc2)c(=O)nc2nc[nH]n12` displayed a GHS category of 4.

`C=C(C)C(=O)NC(C)C` displayed a GHS category of 5.

Regarding `CCOC[C@H]1CO[C@@](Cn2cncn2)(c2cc3ccccc3o2)O1`, the GHS category came to 4.

With `CC1=C(C(=O)O)N2C(=O)[C@@H](NC(=O)C(N)C3=CCC=CC3)[C@H]2SC1` (some centres not stated), the GHS category is 5.

The molecule `CCCCOC(=O)C=Cc1ccccc1` yielded a GHS category of 5.

In the case of `NS(=O)(=O)c1cc(C(=O)NN2C[C@H]3[C@H]4CCC(C4)[C@H]3C2)ccc1Cl`, the GHS category came to 5.

For `CN1CC(c2ccno2)CC2c3cccc4[nH]cc(c34)CC21` (configuration not stated), the GHS category is 4.

The molecule `C=C(C)C(=O)OCCC(F)(F)C(F)(F)C(F)(F)C(F)(F)C(F)(F)C(F)(F)F` came in with a GHS category of 5.

On to `CC(C)=CCC/C(C)=C/C(=O)OCCC(C)C`, for which the GHS category worked out at 5.

In turn, `Nc1cccc2c(S(=O)(=O)O)cccc12` yielded a GHS category of 5.

Molecule `CC(C)=CCC/C(C)=C/COC=O` gave a GHS category of 5.

On to `CCCCOc1nn(-c2cccc(C(F)(F)F)c2)c2ncccc12`, for which the GHS category turned out to be 4.

As to `O=C(O)CCCCCCCCCCCCCCCCC(=O)O`, the GHS category is 5.

`COC12C[C@@H](CO)CN(C)[C@@H]1Cc1cn(C(C)(C)C)c3cccc2c13` (some centres not stated) showed a GHS category of 4.

Molecule `Cc1cc(OP(Oc2cc(C)c(C(C)(C)C)cc2C(C)(C)C)Oc2cc(C)c(C(C)(C)C)cc2C(C)(C)C)c(C(C)(C)C)cc1C(C)(C)C` registered a GHS category of 5.

`CCS(=O)(=O)c1cccnc1S(=O)(=O)NC(=O)Nc1nc(OC)cc(OC)n1` showed a GHS category of 5.
